Experimental data from ChEMBL document CHEMBL1649100, “N-3 Hydroxylation of Pyrimidine-2,4-diones Yields Dual Inhibitors of HIV Reverse Transcriptase and Integrase” (ACS Med Chem Lett, 2011).

Columns and labels:
[1] = Inhibition of HIV integrase strand transfer activity expressed in Escherichia coli; parameters: species or system Human immunodeficiency virus
[2] = target: Human immunodeficiency virus type 1 reverse transcriptase (Human immunodeficiency virus 1, UniProt Q72547); experiment: Inhibition of HIV1 reverse transcriptase
[3] = system: Human immunodeficiency virus 1; experiment: Antiviral activity against HIV1 3B infected in human CEM-SS cells assessed as inhibition of viral replication after 6 days by MTS assay; type: functional, organism-based; conditions: Human immunodeficiency virus 1, 3B, 144 h
[4] = Inhibition of HIV integrase 3' processing activity expressed in Escherichia coli; parameters: species or system Human immunodeficiency virus
[5] = Therapeutic index, ratio of CC50 for human CEM-SS cells to EC50 for HIV1 3B; type: cell-based; conditions: read-out: Ratio CC50/EC50
[6] = Cytotoxicity in human CEM-SS cells after 6 days by MTS assay; type: cell-based

CC(C)c1c(Cc2ccc(F)cc2)n(COCc2ccc(F)cc2)c(=O)n(O)c1=O
IC50 [1]: 5.5 µM
IC50 [2]: > 100 µM
EC50 [3]: > 10 µM
IC50 [4]: > 333 µM

CC(C)c1c(Cc2ccccc2)n(COCc2ccccc2)c(=O)n(O)c1=O
selectivity ratio [5]: > 2500
IC50 [1]: 21 µM
IC50 [2]: 6.2 µM
CC50 at 144 h [6]: > 20 µM
EC50 [3]: 0.008 µM
IC50 [4]: > 333 µM

CC(C)c1c(Cc2ccc(F)cc2)n(COCc2ccccc2)c(=O)n(O)c1=O
IC50 [1]: 7.3 µM
IC50 [2]: > 100 µM
EC50 [3]: > 10 µM
IC50 [4]: > 333 µM

CC(C)c1c(Cc2ccccc2)n(COCc2ccc(F)cc2)c(=O)n(O)c1=O
selectivity ratio [5]: > 830
IC50 [1]: 3.5 µM
IC50 [2]: 0.17 µM
CC50 at 144 h [6]: > 20 µM
EC50 [3]: 0.024 µM
IC50 [4]: > 333 µM

CCc1c(Cc2ccccc2)n(COCc2ccccc2)c(=O)n(O)c1=O
selectivity ratio [5]: > 18
IC50 [1]: 8.2 µM
IC50 [2]: 9.4 µM
CC50 at 144 h [6]: > 20 µM
EC50 [3]: 1.1 µM
IC50 [4]: > 333 µM

CC(C)c1c(Cc2ccccc2)n(COCc2ccccc2)c(=O)n(N)c1=O
IC50 [1]: > 333 µM
IC50 [2]: 1.5 µM
EC50 [3]: > 10 µM
IC50 [4]: > 333 µM

CCOCn1c(Cc2ccccc2)c(C(C)C)c(=O)n(O)c1=O
selectivity ratio [5]: > 4.7
IC50 [1]: 85 µM
IC50 [2]: 13 µM
CC50 at 144 h [6]: > 20 µM
EC50 [3]: 4.3 µM
IC50 [4]: > 333 µM

CCOCn1c(Cc2ccc(F)cc2)c(C(C)C)c(=O)n(O)c1=O
IC50 [1]: 105 µM
IC50 [2]: > 100 µM
EC50 [3]: > 10 µM
IC50 [4]: > 333 µM

CC(C)c1c(Cc2ccccc2)n(COCc2ccccc2)c(=O)[nH]c1=O
selectivity ratio [5]: > 1500
IC50 [1]: > 333 µM
IC50 [2]: 0.04 µM
CC50 at 144 h [6]: > 20 µM
EC50 [3]: 0.013 µM
IC50 [4]: > 333 µM
